What was measured:
[1] = biological target: T1, human GC-A (Homo sapiens, UniProt P16066); assay: cGMP levels (ELISA) in HEK293 cells overexpressing human GC-A; assay type: cell-based; conditions: acetate salt; for cGMP generation in the presence of ANP: ANP (10^−10 M)
T1 construct: host or cells: HEK293
T1 sequence (P16066 33-1061): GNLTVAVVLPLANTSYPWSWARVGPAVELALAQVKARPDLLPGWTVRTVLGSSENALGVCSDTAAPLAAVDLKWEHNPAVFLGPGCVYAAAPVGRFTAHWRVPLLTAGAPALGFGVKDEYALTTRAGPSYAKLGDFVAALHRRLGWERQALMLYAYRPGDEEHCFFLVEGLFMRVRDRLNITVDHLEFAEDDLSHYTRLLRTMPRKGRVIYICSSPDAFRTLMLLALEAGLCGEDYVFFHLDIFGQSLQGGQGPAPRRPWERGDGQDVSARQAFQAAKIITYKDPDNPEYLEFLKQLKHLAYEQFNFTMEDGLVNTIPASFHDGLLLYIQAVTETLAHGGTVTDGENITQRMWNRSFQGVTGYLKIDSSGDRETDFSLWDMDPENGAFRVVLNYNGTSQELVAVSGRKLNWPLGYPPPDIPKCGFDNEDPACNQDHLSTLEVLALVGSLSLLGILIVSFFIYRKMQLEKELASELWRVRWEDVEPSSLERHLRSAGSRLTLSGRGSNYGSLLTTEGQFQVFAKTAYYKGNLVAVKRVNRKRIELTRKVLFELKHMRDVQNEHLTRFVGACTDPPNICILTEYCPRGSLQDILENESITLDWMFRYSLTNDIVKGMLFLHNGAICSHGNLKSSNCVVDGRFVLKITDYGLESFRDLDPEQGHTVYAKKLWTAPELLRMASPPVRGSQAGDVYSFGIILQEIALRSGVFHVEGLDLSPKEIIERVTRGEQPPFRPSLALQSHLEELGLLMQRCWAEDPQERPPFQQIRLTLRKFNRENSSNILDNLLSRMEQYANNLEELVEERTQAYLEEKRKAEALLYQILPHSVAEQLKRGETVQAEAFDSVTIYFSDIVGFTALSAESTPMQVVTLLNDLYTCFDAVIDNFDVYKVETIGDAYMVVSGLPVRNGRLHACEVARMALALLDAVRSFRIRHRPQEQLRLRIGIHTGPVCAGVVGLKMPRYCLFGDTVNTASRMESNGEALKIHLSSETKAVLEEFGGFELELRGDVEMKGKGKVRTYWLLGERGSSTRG
T1 sequence (P01160 124-151 partner limits assumed): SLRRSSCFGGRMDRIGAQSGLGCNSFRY
Procedure: HEK293 GC-A cells were seeded in 48-well plates (1×10^5 cell per well) and cultured overnight to reach 80-90% confluency. The treatment buffer that consists of Hank's Balanced Salt Solution (HBSS), 0.1% BSA, 2 mM HEPES and 0.5 mM 3-isobutyl-1-methylzanthine (IBMX—a non-specific phosphodiesterase inhibitor), was used in all experiments. Compound 3, Compound 1, and Compound 2 acetate salt were dissolved in DMSO and ANP was dissolved in phosphate buffered solution (PBS). On the experimental day, growth media was replaced with treatment buffer and HEK293 GC-A cells were 1) treated with Compound 3, Compound 1 or Compound 2 at doses of 1 or 10 μM (reaching a final concentration of 0).1% DMSO) alone for 5 min at 37° C.: or 2) pretreated with Compound 3, Compound 1 or Compound 2 at doses of 1 or 10 μM (reaching a final concentration of 0.1% DMSO) for 5 min at 37° C., followed by a treatment with ANP (10^-10 M) for additional 10 min at 37° C. HEK293 GC-A cells were also treated with vehicle (0.1% DMSO) which served as a negative control. Then all cells were washed with PBS once and lysed with 0.1M HCl. Intracellular cGMP was measured in the lysate using a commercial cGMP ELISA kit (Enzo Life Sciences, Farmingdale, NY) as instructed by the manufacturer.

[2] = system: spontaneously hypertensive rats; assay: In vivo actions in spontaneously hypertensive rats (cGMP, blood pressure, renal function); parameters: species or system rat; conditions: acetate salt, 10 mg/kg single IV bolus, SHR; for plasma cGMP: 15 minutes after administration; for diastolic blood pressure: 60 minutes post-bolus; for diastolic blood pressure / urinary sodium excretion / urinary volume / systolic blood pressure: vs vehicle (and Compound 2); for urinary sodium excretion / urinary volume: post-bolus; for systolic blood pressure: throughout 60 minutes post bolus
Procedure: The cGMP generating, blood pressure lowering and renal enhancing actions of a single intravenous (IV) bolus dose of Compound 3, Compound 1 or Compound 2 acetate salt (n=4/small molecule form: 10 mg/kg) or Vehicle (n=5: 15% DMSO/60% PEG300/25% PBS) in spontaneously hypertensive rats (SHRs; male: 12 weeks old) were investigated. Studies were performed in accordance with the Animal Welfare Act and with approval of the Mayo Clinic Institutional Animal Care and Use Committee.
SHRs were administered Inactin (100 mg/kg: IP) to induce anesthesia and then maintained with additional Inactin (100 mg/kg: IP), as required. Once adequate anesthesia was achieved, the anesthetized SHRs were placed on a heating table set at 37° C. to maintain body temperature for the entire study and then were subjected to vessel and bladder cannulation. A polyethylene (PE)-50 tube catheter was placed into the jugular vein for saline, Compound 3, Compound 1, Compound 2 or vehicle IV administration. The carotid artery was cannulated with a PE-50 tube catheter for blood pressure monitoring (Sonometrics, London, Ontario, Canada) and blood sampling/collection. The bladder was accessed and cannulated with a PE-90 tube catheter for passive urine collection. After completion of the procedural set up, a 45-minute equilibration period was performed that included continuous IV saline infusion, a 30-minute baseline (pre-bolus) urine collection and a single baseline blood sample at the end of the 30-minute baseline urine collection. […] BP was monitored and recorded, beginning prior to IV bolus administration (0-minute post-bolus) and then at 15, 30, 45 and 60 minutes post-bolus. At the end of the 60-minute clearance, the anesthetized rats were euthanized by exsanguination and all blood and urine samples were stored at −80° C. until assayed. Plasma and urinary cGMP levels were measured using a cGMP ELISA kit (Enzo Life Sciences, Farmingdale, NY) as instructed by the manufacturer. Urinary sodium concentrations were determined with an electrolyte analyzer (Diamond Diagnostics Inc., Holliston, MA).

Structure (SMILES): CN(C)CCN1CCCC(C(=O)Nc2nc3c(F)cc(F)cc3s2)C1 (racemic) [Compound 3, N-(4,6-difluorobenzo[d]thiazol-2-yl)-1-(2-(dimethylamino)ethyl) piperidine-3-carboxamide]
- cGMP generation in the presence of ANP ([1]; 1 or 10 μM): dose dependent increase
- cGMP generation, compound alone ([1]; 1 or 10 μM, without ANP, vs vehicle): no effect
- plasma cGMP [2]: increase
- urinary cGMP [2]: increase
- diastolic blood pressure [2]: greater reduction
- urinary sodium excretion [2]: greater increase
- urinary volume [2]: greater increase
- systolic blood pressure [2]: greater reduction

Structure (SMILES): CN(C)CCN1CCC[C@H](C(=O)Nc2nc3c(F)cc(F)cc3s2)C1 [Compound 1, (S)-N-(4,6-difluorobenzo[d]thiazol-2-yl)-1-(2-(dimethylamino)ethyl) piperidine-3-carboxamide]
- cGMP generation in the presence of ANP ([1]; 1 or 10 μM): dose response increase
- cGMP generation in the presence of ANP, Compound 1 compared with Compound 2 ([1]; both doses (1 and 10 μM), ANP (10^-10 M)): higher
- plasma cGMP [2]: increase
- urinary cGMP [2]: increased
- diastolic blood pressure [2]: more effective
- urinary sodium excretion [2]: more effective
- urinary volume [2]: more effective
- systolic blood pressure [2]: more effective

Structure (SMILES): CN(C)CCN1CCC[C@@H](C(=O)Nc2nc3c(F)cc(F)cc3s2)C1 [Compound 2, (R)-N-(4,6-difluorobenzo[d]thiazol-2-yl)-1-(2-(dimethylamino)ethyl) piperidine-3-carboxamide]
- cGMP generation in the presence of ANP ([1]; 1 or 10 μM): dose response increase
- plasma cGMP [2]: increase
- urinary cGMP [2]: did not increase

Reference: patent US20250026746A1, “ENHANCERS OF PARTICULATE GUANYLYL CYCLASE RECEPTOR A” (Mayo Foundation for Medical Education and Research, priority 2021, published 2025)
